Laboratory results taken from US20260193293A1, “PEPTIDES CAPABLE OF INHIBITING PROTEIN-PROTEIN INTERACTIONS AT GABAB1A SUBUNIT AND USES THEREOF” (UNIVERSITY OF COPENHAGEN, priority 2022, published 2026).
Values joined by “and” are separate entries in the source; they are usually repeats but may differ in a detail not shown here. Equal values may be shown once. Read-outs that look alike come from different tables or passages of the source. Each block holds one molecule with its values, some of them ahead of it. Non-standard residues stand in square brackets, D forms with d. Residues, ends and D or L forms follow the SMILES beside them. *: point of attachment. NMeE = CN[C@@H](CCC(=O)O)C(=O)O; Bn = c1ccc(C*)cc1; Sar = CNCC(=O)O

Biological target: Sushi domains (SD1/2) protein
Assay: Fluorescence polarization (FP) competition assay with AJAP-1probe, calculated Ki
Type: binding
Method in brief: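 Competition against 25 nM TAMRA-labelled peptide probe binding SD1/2, in PBS pH 7.4 with 1% BSA at rt, read at 530/580 nm. IC50 from sigmoidal dose-response fits, at least triplicate; Ki calculated from IC50 using probe Kd from saturation binding.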

[1] = Table 7, Ala-, D-amino acids and N-methylation scans of APPWT, read-out: Ki (nM) mean ± SEM
[2] = Table 3, SPOT hit validation and previously reported peptides, read-out: Ki (nM) mean ± SEM
[3] = Table 10, deep mutational scanning validation variants of APPWT, read-out: Ki (nM) mean ± SEM

Compound: CC(=O)N[C@@H](CCC(=O)O)C(=O)N[C@@H](CC(=O)O)C(=O)N[C@@H](CC(=O)O)C(=O)N[C@@H](CO)C(=O)N[C@@H](C)C(=O)N[C@H](C(=O)N[C@@H](Cc1c[nH]c2ccccc12)C(=O)N[C@@H](Cc1c[nH]c2ccccc12)C(=O)NCC(=O)NCC(=O)N[C@@H](C)C(=O)N[C@@H](CC(=O)O)C(=O)N[C@H](C(=O)N[C@@H](CC(=O)O)C(N)=O)[C@@H](C)O)C(C)C (Ac-EDDSAVWWGGADTD-NH2)
- Ki [1]: 3076 ± 22 nM

Compound: CC(=O)N[C@@H](CCC(=O)O)C(=O)N[C@@H](CC(=O)O)C(=O)N[C@@H](CC(=O)O)C(=O)N[C@@H](Cc1c[nH]c2ccccc12)C(=O)N[C@@H](CC(=O)O)C(=O)N[C@H](C(=O)N[C@@H](Cc1c[nH]c2ccccc12)C(=O)N[C@@H](Cc1c[nH]c2ccccc12)C(=O)NCC(=O)NCC(=O)N[C@@H](C)C(=O)N[C@@H](CC(=O)O)C(=O)N[C@H](C(=O)N[C@@H](CC(=O)O)C(N)=O)[C@@H](C)O)C(C)C (Ac-EDDWDVWWGGADTD-NH2)
- Ki [3]: 257 ± 4 nM

Compound: CC(=O)N[C@@H](CCC(=O)O)C(=O)N[C@@H](CC(=O)O)C(=O)N[C@@H](CC(=O)O)C(=O)N[C@@H](CO)C(=O)N[C@@H](CC(=O)O)C(=O)N[C@H](C(=O)N[C@@H](Cc1c[nH]c2ccccc12)C(=O)N[C@@H](Cc1c[nH]c2ccccc12)C(=O)NCC(=O)NCC(=O)N[C@@H](C)C(=O)N[C@@H](CC(=O)O)C(=O)N[C@@H](Cc1c[nH]c2ccccc12)C(=O)N[C@@H](CC(=O)O)C(N)=O)C(C)C (Ac-EDDSDVWWGGADWD-NH2)
- Ki [3]: 459 ± 21 nM

Compound: CC(=O)N[C@@H](CC(=O)O)C(=O)N[C@@H](CC(=O)O)C(=O)N[C@@H](CO)C(=O)N[C@@H](CC(=O)O)C(=O)N[C@H](C(=O)N[C@@H](Cc1c[nH]c2ccccc12)C(=O)N[C@@H](Cc1c[nH]c2ccccc12)C(=O)NCC(=O)NCC(=O)N[C@@H](C)C(=O)N[C@@H](CC(=O)O)C(=O)N[C@H](C(=O)N[C@@H](CC(=O)O)C(=O)N[C@@H](Cc1ccc(O)cc1)C(=O)N[C@@H](C)C(=O)N[C@@H](CC(=O)O)C(=O)NCC(N)=O)[C@@H](C)O)C(C)C (Ac-DDSDVWWGGADTDYADG-NH2)
- Ki [2]: 687 ± 17 nM

Compound: CC(=O)N(C)[C@@H](CCC(=O)O)C(=O)N[C@@H](CC(=O)O)C(=O)N[C@@H](CC(=O)O)C(=O)N[C@@H](CO)C(=O)N[C@@H](CC(=O)O)C(=O)N[C@H](C(=O)N[C@@H](Cc1c[nH]c2ccccc12)C(=O)N[C@@H](Cc1c[nH]c2ccccc12)C(=O)NCC(=O)NCC(=O)N[C@@H](C)C(=O)N[C@@H](CC(=O)O)C(=O)N[C@H](C(=O)N[C@@H](CC(=O)O)C(N)=O)[C@@H](C)O)C(C)C (Ac-[NMeE]DDSDVWWGGADTD-NH2)
- Ki [1]: 670 ± 6 nM

Compound: CC(=O)N[C@@H](CCC(=O)O)C(=O)N[C@@H](CC(=O)O)C(=O)N[C@@H](CC(=O)O)C(=O)N[C@@H](CO)C(=O)N[C@@H](CC(=O)O)C(=O)N[C@H](C(=O)N[C@@H](Cc1c[nH]c2ccccc12)C(=O)N[C@@H](Cc1ccc(OCc2ccccc2)cc1)C(=O)NCC(=O)NCC(=O)N[C@@H](C)C(=O)N[C@@H](CC(=O)O)C(=O)N[C@H](C(=O)N[C@@H](CC(=O)O)C(N)=O)[C@@H](C)O)C(C)C [EDDSDVW(Obtyr)GGADTD] (Ac-EDDSDVWY(Bn)GGADTD-NH2)
- Ki (Table 16, ncAAs incorporated peptides, read-out: Ki (nM) mean ± SEM): 3860 ± 62 nM

Results, then the molecule that gave them:

- Ki [2]: 244 ± 13 nM
- Ki (Table 4, truncation and elongation scans of APP epitope, listed as EEDDSDVWWGGADTDYAD, read-out: Ki (nM) mean ± SEM): 244 nM and 233 nM
Compound: CC(=O)N[C@@H](CCC(=O)O)C(=O)N[C@@H](CCC(=O)O)C(=O)N[C@@H](CC(=O)O)C(=O)N[C@@H](CC(=O)O)C(=O)N[C@@H](CO)C(=O)N[C@@H](CC(=O)O)C(=O)N[C@H](C(=O)N[C@@H](Cc1c[nH]c2ccccc12)C(=O)N[C@@H](Cc1c[nH]c2ccccc12)C(=O)NCC(=O)NCC(=O)N[C@@H](C)C(=O)N[C@@H](CC(=O)O)C(=O)N[C@H](C(=O)N[C@@H](CC(=O)O)C(=O)N[C@@H](Cc1ccc(O)cc1)C(=O)N[C@@H](C)C(=O)N[C@@H](CC(=O)O)C(N)=O)[C@@H](C)O)C(C)C [Peptide 36] (Ac-EEDDSDVWWGGADTDYAD-NH2)

- Ki (CPP tagged peptides overview, SD1/2 binding affinity, mean ± SEM, n ≥ 3, read-out: Ki): 118 ± 3 nM
- Ki (Table 14, CPPs tagged peptides, read-out: Ki (nM) mean ± SEM): 118 ± 3 nM
Compound: CC[C@H](C)[C@H](NC(=O)[C@H](Cc1c[nH]c2ccccc12)NC(=O)[C@H](CC(=O)O)NC(=O)[C@H](CC(=O)O)NC(=O)[C@H](CC(=O)O)NC(=O)[C@H](CCC(=O)O)NC(C)=O)C(=O)N[C@@H](CC(=O)O)C(=O)N[C@@H](Cc1c[nH]c2ccccc12)C(=O)N[C@@H](Cc1ccc(O)cc1)C(=O)N[C@@H](CC(=O)O)C(=O)N[C@@H](CO)C(=O)N[C@@H](CC(=O)O)C(=O)N[C@@H](CC(=O)O)C(=O)N[C@@H](CC(=O)O)C(=O)NCC(=O)NCC(=O)NCC(=O)NCC(=O)N[C@@H](CO)C(=O)N[C@@H](CCCNC(=N)N)C(=O)N[C@@H](CCCNC(=N)N)C(=O)N[C@@H](CCCNC(=N)N)C(=O)N[C@@H](CCCNC(=N)N)C(=O)N[C@@H](CCCNC(=N)N)C(=O)N[C@@H](CCCNC(=N)N)C(=O)N[C@@H](CCCNC(=N)N)C(=O)N[C@@H](CCCNC(=N)N)C(N)=O [Peptide 16-FL-R8] (Ac-EDDDWIDWYDSDDDGGGGSRRRRRRRR-NH2)

- Ki (AJAP-1probe, read-out: Ki): 1300 nM
- Ki [2]: 1300 ± 28 nM
Compound: CC(=O)N[C@@H](CO)C(=O)N[C@@H](C)C(=O)N[C@@H](CC(=O)O)C(=O)N[C@@H](C)C(=O)N[C@@H](CCC(=O)O)C(=O)N[C@@H](CCC(=O)O)C(=O)N[C@@H](CC(=O)O)C(=O)N[C@@H](CC(=O)O)C(=O)N[C@@H](CO)C(=O)N[C@@H](CC(=O)O)C(=O)N[C@H](C(=O)N[C@@H](Cc1c[nH]c2ccccc12)C(=O)N[C@@H](Cc1c[nH]c2ccccc12)C(=O)NCC(=O)NCC(N)=O)C(C)C [Peptide 12] (Ac-SADAEEDDSDVWWGG-NH2)

- Ki (Table 9, Ala-, D-amino acids and N-methylation scans of PIANPWT, read-out: Ki (nM) mean ± SEM): 1030 ± 26 nM
Compound: CC[C@H](C)[C@H](NC(=O)[C@H](C)NC(=O)[C@H](Cc1c[nH]c2ccccc12)NC(=O)[C@@H]1CCCN1C(C)=O)C(=O)N[C@H](C(=O)N[C@@H](Cc1c[nH]c2ccccc12)C(=O)NCC(=O)N1CCC[C@H]1C(=O)N[C@@H](C)C(=O)N[C@H](C(=O)N[C@@H](CO)C(=O)N[C@@H](CCCNC(=N)N)C(=O)N[C@@H](CCC(=O)O)C(=O)N[C@@H](CC(=O)O)C(N)=O)C(C)C)C(C)C [PWAIVWGPAVSRED] (Ac-PWAIVWGPAVSRED-NH2)

- Ki (Table 12, deep mutational scanning validation variants of PIANPWT, read-out: Ki (nM) mean ± SEM): 1300 ± 16 nM
Compound: CC[C@H](C)[C@H](NC(=O)[C@H](C)NC(=O)[C@H](Cc1c[nH]c2ccccc12)NC(=O)[C@@H]1CCCN1C(C)=O)C(=O)N[C@@H](CC(=O)O)C(=O)N[C@@H](Cc1c[nH]c2ccccc12)C(=O)NCC(=O)N1CCC[C@H]1C(=O)N[C@H](C(=O)N[C@H](C(=O)N[C@@H](CO)C(=O)N[C@@H](CCCNC(=N)N)C(=O)N[C@@H](CCC(=O)O)C(=O)N[C@@H](CC(=O)O)C(N)=O)C(C)C)[C@@H](C)O [PWAIDWGPTVSRED] (Ac-PWAIDWGPTVSRED-NH2)

- Ki [1]: 161 ± 2 nM
- Ki (Table 13, peptides for affinity maturation, read-out: Ki (nM) mean ± SEM): 161 ± 2 nM
Compound: CC(=O)N[C@@H](CCC(=O)O)C(=O)N[C@@H](CC(=O)O)C(=O)N[C@@H](CC(=O)O)C(=O)N[C@@H](CO)C(=O)N[C@@H](CC(=O)O)C(=O)N[C@H](C(=O)N[C@@H](Cc1c[nH]c2ccccc12)C(=O)N[C@@H](Cc1c[nH]c2ccccc12)C(=O)NCC(=O)N(C)CC(=O)N[C@@H](C)C(=O)N[C@@H](CC(=O)O)C(=O)N[C@H](C(=O)N[C@@H](CC(=O)O)C(N)=O)[C@@H](C)O)C(C)C (Ac-EDDSDVWWG[Sar]ADTD-NH2)

- Ki (AJAP-1probe, read-out: Ki): 5000 nM
- Ki [2]: 5030 ± 171 nM
Compound: CC(=O)N[C@@H](CC(=O)O)C(=O)N[C@@H](CO)C(=O)N[C@@H](C)C(=O)N[C@@H](CC(=O)O)C(=O)N[C@@H](C)C(=O)N[C@@H](CCC(=O)O)C(=O)N[C@@H](CCC(=O)O)C(=O)N[C@@H](CC(=O)O)C(=O)N[C@@H](CC(=O)O)C(=O)N[C@@H](CO)C(=O)N[C@@H](CC(=O)O)C(=O)N[C@H](C(=O)N[C@@H](Cc1c[nH]c2ccccc12)C(=O)N[C@@H](Cc1c[nH]c2ccccc12)C(=O)NCC(N)=O)C(C)C [Peptide 11] (Ac-DSADAEEDDSDVWWG-NH2)
